One block for each compound: values may come before it.
Columns and labels:
Assay in all cases: Competitive isoTOP-ABPP in situ (fragment-treated cells)
Assay type in all cases: cell-based
[1] = target: cysteines in MDA-MB-231 and Ramos cells (Homo sapiens, UniProt Q96FX7)
[2] = target: T1, cysteines in MDA-MB-231 and Ramos cells (Homo sapiens, UniProt Q86UY8)
T1 sequence (Q86UY8 1-548): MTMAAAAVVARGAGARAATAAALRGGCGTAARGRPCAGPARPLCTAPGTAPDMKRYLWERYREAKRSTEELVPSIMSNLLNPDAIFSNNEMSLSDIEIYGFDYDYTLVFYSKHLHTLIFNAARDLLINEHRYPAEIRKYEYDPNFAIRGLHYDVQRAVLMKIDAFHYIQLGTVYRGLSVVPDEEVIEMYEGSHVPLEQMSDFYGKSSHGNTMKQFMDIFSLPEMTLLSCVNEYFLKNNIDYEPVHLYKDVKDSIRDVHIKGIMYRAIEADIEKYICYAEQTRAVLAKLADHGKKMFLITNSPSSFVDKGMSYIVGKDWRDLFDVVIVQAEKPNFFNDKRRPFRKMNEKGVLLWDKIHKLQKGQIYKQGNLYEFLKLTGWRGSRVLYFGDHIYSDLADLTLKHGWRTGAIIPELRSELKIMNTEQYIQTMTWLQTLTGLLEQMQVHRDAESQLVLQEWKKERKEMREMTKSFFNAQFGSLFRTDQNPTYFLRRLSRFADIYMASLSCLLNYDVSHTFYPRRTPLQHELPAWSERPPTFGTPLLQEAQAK

[3] = target: T2, cysteines in MDA-MB-231 and Ramos cells (Homo sapiens, UniProt P51649)
T2 sequence (P51649 48-535): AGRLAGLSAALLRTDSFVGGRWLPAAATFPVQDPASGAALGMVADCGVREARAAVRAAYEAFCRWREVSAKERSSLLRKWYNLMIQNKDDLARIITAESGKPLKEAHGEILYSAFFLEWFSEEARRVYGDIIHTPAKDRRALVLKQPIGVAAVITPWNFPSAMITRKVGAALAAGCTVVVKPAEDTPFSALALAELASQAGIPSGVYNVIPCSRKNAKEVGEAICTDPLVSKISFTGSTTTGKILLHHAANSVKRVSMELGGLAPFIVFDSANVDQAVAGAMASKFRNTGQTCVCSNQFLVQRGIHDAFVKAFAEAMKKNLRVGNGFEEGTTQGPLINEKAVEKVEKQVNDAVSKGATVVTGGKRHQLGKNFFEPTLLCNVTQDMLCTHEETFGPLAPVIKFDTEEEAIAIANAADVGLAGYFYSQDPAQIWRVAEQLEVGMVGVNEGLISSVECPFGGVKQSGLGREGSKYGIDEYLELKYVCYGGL

[4] = target: cysteines in MDA-MB-231 and Ramos cells (Homo sapiens, UniProt P07858)
[5] = target: cysteines in MDA-MB-231 and Ramos cells (Homo sapiens, UniProt P45984)
cysteines in MDA-MB-231 and Ramos cells (Homo sapiens, UniProt P45984), sequence (P45984 whole entry): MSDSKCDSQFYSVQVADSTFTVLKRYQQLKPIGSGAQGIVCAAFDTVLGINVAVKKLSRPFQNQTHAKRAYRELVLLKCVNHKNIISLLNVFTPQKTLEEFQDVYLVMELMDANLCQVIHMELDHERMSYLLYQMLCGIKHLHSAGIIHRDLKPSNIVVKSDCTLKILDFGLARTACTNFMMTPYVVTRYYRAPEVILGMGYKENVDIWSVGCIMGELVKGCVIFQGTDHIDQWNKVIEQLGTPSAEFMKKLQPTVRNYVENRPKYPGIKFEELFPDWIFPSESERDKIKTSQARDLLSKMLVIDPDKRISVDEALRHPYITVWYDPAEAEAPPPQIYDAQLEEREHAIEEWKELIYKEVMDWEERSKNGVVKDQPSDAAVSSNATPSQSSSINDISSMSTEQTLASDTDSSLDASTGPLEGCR

[6] = target: cysteines in MDA-MB-231 and Ramos cells (Homo sapiens, UniProt P22061)
cysteines in MDA-MB-231 and Ramos cells (Homo sapiens, UniProt P22061), sequence (P22061 whole entry): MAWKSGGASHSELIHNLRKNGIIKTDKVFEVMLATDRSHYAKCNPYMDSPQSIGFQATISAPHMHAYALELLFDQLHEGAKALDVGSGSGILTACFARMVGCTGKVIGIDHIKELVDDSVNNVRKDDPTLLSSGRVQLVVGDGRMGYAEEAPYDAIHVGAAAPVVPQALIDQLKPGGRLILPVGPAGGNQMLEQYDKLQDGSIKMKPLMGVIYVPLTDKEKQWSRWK

[7] = target: cysteines in MDA-MB-231 and Ramos cells (Homo sapiens, UniProt Q5MNZ6)
cysteines in MDA-MB-231 and Ramos cells (Homo sapiens, UniProt Q5MNZ6), sequence (Q5MNZ6 whole entry): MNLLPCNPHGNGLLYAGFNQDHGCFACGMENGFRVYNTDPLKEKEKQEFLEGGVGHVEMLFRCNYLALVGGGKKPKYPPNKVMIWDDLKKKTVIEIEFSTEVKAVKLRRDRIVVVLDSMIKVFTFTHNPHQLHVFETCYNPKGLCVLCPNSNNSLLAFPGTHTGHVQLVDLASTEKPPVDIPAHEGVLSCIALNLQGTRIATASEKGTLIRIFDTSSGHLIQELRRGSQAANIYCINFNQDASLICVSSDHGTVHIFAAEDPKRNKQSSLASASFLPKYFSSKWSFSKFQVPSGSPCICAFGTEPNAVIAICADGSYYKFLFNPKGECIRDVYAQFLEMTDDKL

[8] = target: cysteines in MDA-MB-231 and Ramos cells (Homo sapiens, UniProt O14933); conditions: for isoTOP-ABPP ratio, cysteine O14933_C98: 200 μM, insitu
cysteines in MDA-MB-231 and Ramos cells (Homo sapiens, UniProt O14933), sequence (O14933 whole entry): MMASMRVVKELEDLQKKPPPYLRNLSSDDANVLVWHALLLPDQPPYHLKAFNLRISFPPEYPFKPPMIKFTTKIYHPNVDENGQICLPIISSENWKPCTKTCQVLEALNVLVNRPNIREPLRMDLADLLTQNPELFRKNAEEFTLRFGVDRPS

[9] = target: cysteines in MDA-MB-231 and Ramos cells (Homo sapiens, UniProt P48643)
cysteines in MDA-MB-231 and Ramos cells (Homo sapiens, UniProt P48643), sequence (P48643 whole entry): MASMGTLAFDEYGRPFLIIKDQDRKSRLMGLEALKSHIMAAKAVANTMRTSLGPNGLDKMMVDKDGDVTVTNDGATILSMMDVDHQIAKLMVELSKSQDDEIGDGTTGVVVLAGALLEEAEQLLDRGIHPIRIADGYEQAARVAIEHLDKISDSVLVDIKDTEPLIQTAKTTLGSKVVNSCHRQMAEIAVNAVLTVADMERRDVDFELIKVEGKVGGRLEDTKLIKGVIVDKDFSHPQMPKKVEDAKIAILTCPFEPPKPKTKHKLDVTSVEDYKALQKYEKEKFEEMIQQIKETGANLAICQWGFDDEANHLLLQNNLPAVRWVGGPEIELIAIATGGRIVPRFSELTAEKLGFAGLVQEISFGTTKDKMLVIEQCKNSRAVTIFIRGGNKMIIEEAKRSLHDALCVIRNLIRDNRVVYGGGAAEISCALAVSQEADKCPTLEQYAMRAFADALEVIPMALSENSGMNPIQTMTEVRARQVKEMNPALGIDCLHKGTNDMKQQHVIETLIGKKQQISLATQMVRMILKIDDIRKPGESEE

[10] = target: T3, cysteines in MDA-MB-231 and Ramos cells (Homo sapiens, UniProt Q8N1F7); conditions: 200 μM, insitu
T3 sequence (Q8N1F7 1-819): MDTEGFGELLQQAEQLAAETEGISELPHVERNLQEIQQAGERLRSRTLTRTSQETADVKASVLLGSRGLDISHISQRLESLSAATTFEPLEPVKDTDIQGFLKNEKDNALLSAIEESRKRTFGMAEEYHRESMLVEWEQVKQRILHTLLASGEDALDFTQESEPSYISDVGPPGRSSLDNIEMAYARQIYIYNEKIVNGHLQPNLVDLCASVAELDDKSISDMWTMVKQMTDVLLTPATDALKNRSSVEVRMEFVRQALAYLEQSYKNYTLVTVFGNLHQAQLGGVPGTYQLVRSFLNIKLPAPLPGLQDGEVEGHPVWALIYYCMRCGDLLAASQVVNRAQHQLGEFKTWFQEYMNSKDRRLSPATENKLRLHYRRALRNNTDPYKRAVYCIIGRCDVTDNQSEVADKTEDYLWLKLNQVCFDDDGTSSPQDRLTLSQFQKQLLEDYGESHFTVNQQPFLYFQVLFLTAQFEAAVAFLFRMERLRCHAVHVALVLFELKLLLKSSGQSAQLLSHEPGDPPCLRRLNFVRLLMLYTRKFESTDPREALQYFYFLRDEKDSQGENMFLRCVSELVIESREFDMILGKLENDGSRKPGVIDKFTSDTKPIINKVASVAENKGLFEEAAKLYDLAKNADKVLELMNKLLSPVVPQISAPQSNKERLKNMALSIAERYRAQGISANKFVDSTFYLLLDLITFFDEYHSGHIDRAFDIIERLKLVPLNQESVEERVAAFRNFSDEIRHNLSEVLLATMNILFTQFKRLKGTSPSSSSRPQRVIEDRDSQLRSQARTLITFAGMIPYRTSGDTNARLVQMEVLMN

[11] = target: T4, cysteines in MDA-MB-231 and Ramos cells (Homo sapiens, UniProt Q9NY27)
T4 sequence (Q9NY27 1-417): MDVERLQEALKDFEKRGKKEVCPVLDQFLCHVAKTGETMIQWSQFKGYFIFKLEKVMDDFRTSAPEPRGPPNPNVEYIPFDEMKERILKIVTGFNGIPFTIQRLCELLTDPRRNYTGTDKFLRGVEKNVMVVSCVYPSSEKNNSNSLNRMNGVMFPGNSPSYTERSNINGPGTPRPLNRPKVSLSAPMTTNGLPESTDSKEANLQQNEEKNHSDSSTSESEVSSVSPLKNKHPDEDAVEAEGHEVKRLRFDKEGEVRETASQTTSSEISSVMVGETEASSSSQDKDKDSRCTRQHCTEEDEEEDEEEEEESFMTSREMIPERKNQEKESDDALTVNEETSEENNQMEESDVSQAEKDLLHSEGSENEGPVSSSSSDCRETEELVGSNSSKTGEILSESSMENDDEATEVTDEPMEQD

cysteines in MDA-MB-231 and Ramos cells (Homo sapiens, UniProt Q96FX7), sequence (Q96FX7 whole entry): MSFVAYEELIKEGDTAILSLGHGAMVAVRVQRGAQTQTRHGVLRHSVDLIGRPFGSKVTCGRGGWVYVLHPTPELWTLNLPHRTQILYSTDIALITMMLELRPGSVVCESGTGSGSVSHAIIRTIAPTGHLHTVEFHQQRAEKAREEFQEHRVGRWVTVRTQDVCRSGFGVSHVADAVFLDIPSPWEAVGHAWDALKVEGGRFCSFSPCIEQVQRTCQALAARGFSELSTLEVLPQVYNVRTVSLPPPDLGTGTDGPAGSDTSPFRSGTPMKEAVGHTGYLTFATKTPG

Compound: COc1ccc2c(c1)CCCN2C(=O)CCl [compound 2]
isoTOP-ABPP reactivity Q96FX7_C209 TRMT61A ([1]; 200 μM, insitu, 231): 20.0
isoTOP-ABPP reactivity Q86UY8_C276 NT5DC3 ([2]; 200 μM, insitu, 231): 3.8
isoTOP-ABPP reactivity P51649_C340 ALDH5A1 ([3]; 200 μM, insitu, 231): 1.9

Compound: COc1ccc(C2CC(c3cccs3)=NN2C(=O)CCl)cc1 (centres unmarked) [compound 4]
isoTOP-ABPP reactivity P07858_C211 CTSB ([4]; 100 μM in situ 231): 2.3
isoTOP-ABPP reactivity P45984_C177 MAPK9 ([5]; 100 μM in situ 231): 12.0
isoTOP-ABPP reactivity Q96FX7_C209 TRMT61A ([1]; 100 μM in situ 231): 2.4
isoTOP-ABPP reactivity P22061_C102 PCMT1 ([6]; 100 μM in situ 231): 2.8
isoTOP-ABPP reactivity Q5MNZ6_C63 WDR45L ([7]; 100 μM in situ 231): 2.0
isoTOP-ABPP reactivity P51649_C340 ALDH5A1 ([3]; 100 μM in situ 231): 1.0
isoTOP-ABPP reactivity O14933_C98 UBE2L6 ([8]; 100 μM in situ 231): 3.0
isoTOP-ABPP reactivity P48643_C253 CCT5 ([9]; 100 μM in situ 231): 0.8

Compound: COc1cc2c(cc1OC)CN(C(=O)CCl)CC2 [compound 8]
isoTOP-ABPP reactivity P45984_C177 MAPK9 ([5]; 200 μM, insitu, 231): 20.0
isoTOP-ABPP reactivity P22061_C102 PCMT1 ([6]; 200 μM, insitu, 231): 4.5
isoTOP-ABPP reactivity Q5MNZ6_C63 WDR45L ([7]; 200 μM, insitu, 231): 20.0
isoTOP-ABPP reactivity P51649_C340 ALDH5A1 ([3]; 200 μM, insitu, 231): 2.7
isoTOP-ABPP reactivity Q8N1F7_0522 NUP93 [10]; 231: 20.0
isoTOP-ABPP reactivity P48643_C253 CCT5 ([9]; 200 μM, insitu, 231): 0.8

Compound: O=C(CCl)N1CCC(Cc2ccccc2)CC1 [compound 9]
isoTOP-ABPP reactivity P07858_C211 CTSB ([4]; 200 μM, insitu, 231): 5.0
isoTOP-ABPP reactivity P22061_C102 PCMT1 ([6]; 200 μM, insitu, 231): 1.2

Compound: O=C(CCl)N1CCN(S(=O)(=O)c2ccccc2F)CC1 [compound 10]
isoTOP-ABPP ratio P07858_C211 ([4]; 200 μM, insitu, 231): 7.4
isoTOP-ABPP ratio P45984_C177 ([5]; 200 μM, insitu, 231): 20.0
isoTOP-ABPP ratio P22061_C102 ([6]; 200 μM, insitu, 231): 1.6
isoTOP-ABPP ratio Q5MNZ6_C63 ([7]; 200 μM, insitu, 231): 3.6
isoTOP-ABPP ratio Q9NY27_C22 ([11]; 200 μM, insitu, ramos): 2.1
isoTOP-ABPP ratio Q86UY8_C276 ([2]; 200 μM, insitu, 231): 5.8
isoTOP-ABPP ratio P51649_C340 ([3]; 200 μM, insitu, 231): 13.4
isoTOP-ABPP ratio P51649_C340 ([3]; 200 μM, insitu, ramos): 20.0
isoTOP-ABPP ratio, cysteine O14933_C98 [8]; 231: 20.0
isoTOP-ABPP ratio, cysteine O14933_C98 ([8]; ramos): 3.2
isoTOP-ABPP ratio P48643_C253 ([9]; 200 μM, insitu, ramos): 0.9

Continued, values first:

isoTOP-ABPP ratio P07858_C211 ([4]; 100 μM in situ 231): 1.1
isoTOP-ABPP ratio P45984_C177 ([5]; 100 μM in situ 231): 0.9
isoTOP-ABPP ratio P22061_C102 ([6]; 100 μM in situ 231): 0.8
isoTOP-ABPP ratio Q5MNZ6_C63 ([7]; 100 μM in situ 231): 0.9
isoTOP-ABPP ratio Q9NY27_C22 ([11]; 100 μM in situ 231): 2.3
isoTOP-ABPP ratio Q86UY8_C276 ([2]; 100 μM in situ 231): 1.4
isoTOP-ABPP ratio P48643_C253 ([9]; 100 μM in situ 231): 0.6
Compound: Cn1cc(S(=O)(=O)N2CCOCC2)cc1C(=O)NC(=O)CCl [compound 11]

isoTOP-ABPP ratio P07858_C211 ([4]; 200 μM, insitu, 231): 1.6
isoTOP-ABPP ratio, cysteine Q96FX7_C209 ([1]; 200 μM, insitu, 231): 2.1
isoTOP-ABPP ratio, cysteine Q96FX7_C209 ([1]; 200 μM, insitu, ramos): 6.8
isoTOP-ABPP ratio P22061_C102 ([6]; 200 μM, insitu, 231): 0.9
isoTOP-ABPP ratio Q5MNZ6_C63 ([7]; 200 μM, insitu, 231): 1.1
isoTOP-ABPP ratio Q9NY27_C22 ([11]; 200 μM, insitu, ramos): 1.5
isoTOP-ABPP ratio Q86UY8_C276 ([2]; 200 μM, insitu, 231): 1.5
isoTOP-ABPP ratio P51649_C340 ([3]; 200 μM, insitu, 231): 1.1
isoTOP-ABPP ratio P51649_C340 ([3]; 200 μM, insitu, ramos): 1.3
isoTOP-ABPP ratio Q8N1F7_C522 ([10]; ramos): 2.2
Compound: O=C(CCl)NCCc1c[nH]c2ccccc12 [compound 13]

Reference: patent publication US10670605B2, “Cysteine reactive probes and uses thereof” (The Scripps Research Institute, priority 2015, dated 2020)
